Test results: PubChem BioAssay (NCI)
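All cell lines were grown in 96-well plates and treated with compound for 48 hours. The concentration for 50% growth inhibition is given as GI50. TGI: concentration producing complete growth inhibition.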

Tests used:
Test in all cases: NCI tumour cell line growth inhibition, 48 h
[1] = tested on: NCI-H460 lung
[2] = tested on: HOP-92 NSCLC
[3] = tested on: UACC-62 melanoma
[4] = tested on: HT29 colon
[5] = tested on: U251 CNS
[6] = tested on: SNB-19 CNS
[7] = tested on: CCRF-CEM leukemia
[8] = tested on: HL-60(TB) leukemia
[9] = tested on: SF-295 CNS
[10] = tested on: COLO 205 colon

Row | Compound | TGI [1] | TGI [2] | TGI [3] | TGI [4] | TGI [5] | TGI [6] | TGI [7] | TGI [8] | TGI [9] | TGI [10] | GI50 [1] | GI50 [2] | GI50 [3] | GI50 [4] | GI50 [5] | GI50 [6] | GI50 [7] | GI50 [8] | GI50 [9] | GI50 [10]
1 | CCCc1ccc(OCC(=O)N/N=C/c2c(-c3ccccc3)[nH]c3ccccc23)cc1 | 22.7 µM | 35.3 µM | 26.3 µM | 29.8 µM | 20.3 µM | > 100 µM | 40.1 µM | 23.8 µM | 34.4 µM | 14.3 µM |  |  |  |  |  |  |  |  |  | 
2 | CC(O)=NC(Cc1ccc2ccccc2c1)C(O)=NC(Cc1ccc(Cl)cc1)C(O)=NC(Cc1c[nH]c2ccccc12)C(O)=NC(CO)C(O)=NC(Cc1ccc(O)cc1)C(O)=NC(CCCN=C(N)N)C(O)=NC(CC(C)C)C(O)=NC(CCCN=C(N)N)C(=O)N1CCCC1C(O)=NC(C)C(=N)O (stereo not drawn) | > 100 µM | > 100 µM | > 100 µM | > 100 µM | 61.4 µM | > 100 µM | > 100 µM | > 100 µM | > 100 µM | > 100 µM |  |  |  |  |  |  |  |  |  | 
3 | CCOC(=O)[C@H]1C[C@]23CN(C(=O)OC(C)(C)C)CC[C@H]2CCC2(SCCCS2)[C@@H]3N1C | > 100 µM | 51 µM | > 100 µM | 53.3 µM | > 100 µM | > 100 µM | > 100 µM | 47.3 µM | > 100 µM | > 100 µM |  |  |  |  |  |  |  |  |  | 
4 | C[n+]1c(-c2ccc(/C=N\NC(=O)c3ccc(C(=O)N/N=C/c4ccc(-c5cn6ccsc6[n+]5C)cc4)cc3)cc2)cn2ccsc21 | 42.1 µM | 36.4 µM | 47.1 µM | 36 µM | 48.9 µM | 51.9 µM | > 100 µM | 43.8 µM |  | 54.3 µM |  |  |  |  |  |  |  |  |  | 
5 | CS(=O)(=O)OCc1c(O)c2c(c(O)c1COS(C)(=O)=O)C(=O)C=CC2=O |  | > 100 µM | > 100 µM | > 100 µM | > 100 µM |  | > 100 µM | > 100 µM | > 100 µM | > 100 µM |  |  |  |  |  |  |  |  |  | 
6 | C=C1C(=O)OC2/C=C(\C)CC(O)/C=C(/CO)CC(OC(=O)/C(C)=C/C)C12 (stereo not drawn) | 168 µM | 111 µM | 274 µM | 303 µM | 303 µM | 353 µM | 76 µM | 34.9 µM | 401 µM | 96.8 µM |  |  |  |  |  |  |  |  |  | 
7 | O=C(Nc1ccc(F)cc1)c1cc2ccc(O)cc2oc1=Nc1ccccc1F | > 100 µM |  | > 100 µM | > 100 µM | 97.5 µM |  | > 100 µM | 69.5 µM | > 100 µM | > 100 µM |  |  |  |  |  |  |  |  |  | 
8 | CC[N+](CC)(CC)/C(=N/S(=O)(=O)c1cc(C)c(Cl)cc1S)[N-]S(=O)(=O)c1ccc(Cl)cc1 | > 100 µM | 49.7 µM |  | > 100 µM | > 100 µM |  | > 100 µM | > 100 µM | > 100 µM |  |  |  |  |  |  |  |  |  |  | 
9 | C[C@H](O)C(=O)SC[C@H](NC(=O)CC[C@@H](N)C(=O)O)C(=O)NCC(=O)O | > 100 µM | > 100 µM | > 100 µM | > 100 µM | > 100 µM |  | > 100 µM |  | > 100 µM | > 100 µM |  |  |  |  |  |  |  |  |  | 
10 | O=C(CCO)OCCCCCC/C=C\CCCCCC/C=C\CCCCCCCCOC(=O)CCO | 31.4 µM | 32.5 µM | 32.9 µM | 31.5 µM | 30.3 µM | 32.9 µM | 32.2 µM | 32.1 µM | 35.5 µM | > 100 µM |  |  |  |  |  |  |  |  |  | 
11 | CC(C)Cc1cccc(C(C)C)c1NC(=O)CCC(=O)N/N=C1\C(=N/NC(=O)CCC(=O)Nc2c(C(C)C)cccc2C(C)C)C(c2ccc3c(c2)OCO3)Oc2ccccc21 (stereo not drawn) | > 100 µM | > 100 µM | > 100 µM | > 100 µM | > 100 µM | > 100 µM | > 100 µM | > 100 µM | > 100 µM | > 100 µM |  |  |  |  |  |  |  |  |  | 
12 | Cc1ccc(S(=O)(=O)NCCSS(=O)(=O)c2ccc(C)cc2)cc1 | > 100 µM | > 100 µM |  | 53.4 µM | 53.8 µM | > 100 µM | > 100 µM |  | > 100 µM | > 100 µM |  |  |  |  |  |  |  |  |  | 
13 | OC1(c2ccc3ccccc3c2)c2ccc3ccccc3c2C2=NCCN21 (stereo not drawn) | > 100 µM | > 100 µM | > 100 µM | > 100 µM | > 100 µM | > 100 µM | > 100 µM | > 100 µM | > 100 µM | > 100 µM |  |  |  |  |  |  |  |  |  | 
14 | O=c1cc(-c2nc3ccccc3[nH]2)[nH]c2nc(-c3nc4ccccc4[nH]3)cc(-c3ccc(Cl)cc3)c12 | 43.6 µM | 55 µM | 33.2 µM | 42.5 µM | 40 µM | > 100 µM | 91.6 µM | 66.3 µM | 48.2 µM | 24.6 µM |  |  |  |  |  |  |  |  |  | 
15 | Cc1onc(-c2c(F)cccc2Cl)c1C(=O)N[C@@H]1C(=O)N2[C@@H]1SC(C)(C)[C@@H]2C(=O)O | > 100 µM | > 100 µM | > 100 µM | > 100 µM | > 100 µM | > 100 µM |  |  | > 100 µM | > 100 µM |  |  |  |  |  |  |  |  |  | 
16 | Cc1cc(-c2nc3cc(F)ccc3s2)ccc1NC(=O)C(C)N (stereo not drawn) | 5.98 µM | 9.41 µM | 7.7 µM | 8.04 µM | 9.42 µM | 9.63 µM | 3.25 µM | 1.34 µM | 7.94 µM | 13.6 µM |  |  |  |  |  |  |  |  |  | 
17 | COc1cc(NCc2ccc3n2-c2ccccc2OC3)cc(OC)c1OC | > 100 µM | 51.3 µM | 43.4 µM | > 100 µM | > 100 µM | > 100 µM | 44.3 µM | 57.2 µM | 63.9 µM | 25.5 µM |  |  |  |  |  |  |  |  |  | 
18 | CCCC(=O)OCC(O)CO (stereo not drawn) | > 5000 µM | > 5000 µM | > 5000 µM | > 5000 µM | > 5000 µM |  | > 5000 µM | > 5000 µM | > 5000 µM | > 5000 µM |  |  |  |  |  |  |  |  |  | 
19 | ClCC1(CCl)COC1 | > 100 µM | > 100 µM |  | > 100 µM | > 100 µM | > 100 µM | > 100 µM | > 100 µM | > 100 µM | > 100 µM |  |  |  |  |  |  |  |  |  | 
20 | NC(N)=N/N=C/c1ccc(O)c(C(=O)O)c1 | > 100 µM | > 100 µM | > 100 µM | > 100 µM | > 100 µM | > 100 µM | > 100 µM |  | > 100 µM | > 100 µM |  |  |  |  |  |  |  |  |  | 
21 | O=C(/N=C/c1c(O)c2ccccc2oc1=O)NC1CCCCC1 | > 100 µM | > 100 µM | > 100 µM | > 100 µM |  | > 100 µM |  | > 100 µM |  | > 100 µM |  |  |  |  |  |  |  |  |  | 
22 | CCOc1ccc2c(c1)NC(=O)C(C1OC(c3ccccc3)=CC1=O)S2 (stereo not drawn) | 39 µM |  | 35.1 µM | 39.6 µM | 49.2 µM | > 100 µM | 10.9 µM | > 100 µM | 83.5 µM | 28.1 µM |  |  |  |  |  |  |  |  |  | 
23 | COc1ccc(-n2cc(-c3ccc(OC)c(OC)c3)nc2SCc2ccccc2)cc1Cl | > 100 µM | 38.6 µM | > 100 µM | > 100 µM | > 100 µM | > 100 µM | 31.2 µM | 37.7 µM | > 100 µM | 45.4 µM | 25.5 µM | 6.13 µM | 20.8 µM | 17 µM | 22.4 µM | 32.5 µM | 0.857 µM | 12.9 µM | 17.4 µM | 19 µM
24 | C=CCC1=CC2(OC)C(=O)C(OC)(OC)C1C1C(OC)(OC)C(=O)C(OC)=CC12CC=C (stereo not drawn) | > 100 µM | > 100 µM | > 100 µM | > 100 µM | > 100 µM | > 100 µM | > 100 µM | > 100 µM | > 100 µM | > 100 µM |  |  |  |  |  |  |  |  |  | 
25 | NC1=NS(=O)(=O)Nc2nc(-c3cccs3)[nH]c21 | > 100 µM | > 100 µM | > 100 µM | > 100 µM | > 100 µM | > 100 µM | > 100 µM | > 100 µM | > 100 µM | > 100 µM |  |  |  |  |  |  |  |  |  | 
26 | CCOc1cc(NC(C)=O)ccc1C(=O)NN1C(=O)CSC1c1ccc(O)c(OC)c1 (stereo not drawn) | > 100 µM | > 100 µM | > 100 µM | > 100 µM |  | > 100 µM | > 100 µM | > 100 µM | > 100 µM | > 100 µM |  |  |  |  |  |  |  |  |  | 
27 | FC(F)(F)C1=NC(=NNc2nnc(-c3ccccc3)c(-c3ccccc3)n2)N=C(C(F)(F)F)C1 | > 100 µM | > 87.3 µM | 30 µM | > 100 µM | > 86.3 µM | > 100 µM | > 100 µM | 37.1 µM | > 100 µM | 61.4 µM |  |  |  |  |  |  |  |  |  | 
28 | CO[C@]12C[C@H](CNC(=O)c3cc(Br)c(Br)[nH]3)O[C@H]1NC(=O)N2 | > 100 µM | > 100 µM | > 100 µM | > 100 µM | > 100 µM | > 100 µM | > 100 µM | > 100 µM | > 100 µM | > 100 µM |  |  |  |  |  |  |  |  |  | 
